Measured values reported in patent US9523097B2, “Engineering rubber production in plants” (The United States of America, as represented by the …, priority 2013, dated 2016).
Read-outs that look alike come from different tables or passages of the source.

Tests used:
guayule explants = details: for Size of Callus with multi shoots: 5-point scale
Description: To evaluate the effect of calcium nitrate on guayule regeneration, guayule explants were cultured on MS basal medium with plant growth regulators (PGRs) (1.0 mg·L^−1 BA and 0.1 mg·L^−1 NAA) and calcium nitrate. […] calcium nitrate concentrations, 0, 100, 250, 500, 750, 1000 and 1500 mg·L^−1, were tested (Table 3). Calcium nitrate was added to the culture medium before adjusting the pH to 5.7, prior to autoclaving. DKW basal medium (0.75 mg·L^−1 BA and 0.25 mg·L^−1 NAA) was used as a control.

guayule leaf explants = assay: Resistance of regenerated shoot on media with spectinomycin; assay type: cell-based, Parthenium argentatum
Description: To confirm whether the guayule explants were resistant to spectinomycin, leaf explants from control plants were cultured on regeneration DKW media that contained 0.75 mg·L^−1 BA and 0.125 mg·L^−1 NAA at various spectinomycin antibiotic levels. Several concentration of spectinomycin (0, 2, 4, 6, 8, 10, 12, 14, 16, 18 and 20 mg·L^−1) was added to the media to confirm the effects of antibiotic concentration on regeneration.

For `O.O.O.O.O=[N+]([O-])[O-].O=[N+]([O-])[O-].[Ca+2]` [Calcium Nitrate, calcium nitrate tetrahydrate], the “Size of Callus with multi shoots” value (guayule explants; 100 mg·L−1, DKW with 0.75 mg·L−1 BA and 0.25 mg·L−1 NAA) was 3.0b, the “Number of elongated shoots” value (guayule explants; 100 mg·L−1, DKW with 0.75 mg·L−1 BA and 0.25 mg·L−1 NAA, per total explants) was 6/30 and the “Size of Callus with multi shoots” value (guayule explants; 100 mg·L−1, MS with 1.0 mg·L−1 BA and 0.1 mg·L−1 NAA) was 4.5a. The “Number of elongated shoots” value (guayule explants; 100 mg·L−1, MS with 1.0 mg·L−1 BA and 0.1 mg·L−1 NAA, per total explants) was 3/30, the “Size of Callus with multi shoots” value (guayule explants; 250 mg·L−1, DKW with BA/NAA) was 2.9b and the “Number of elongated shoots” value (guayule explants; 250 mg·L−1, DKW with BA/NAA, per total explants) was 3/30. For the same compound, the “Size of Callus with multi shoots” value (guayule explants; 250 mg·L−1, MS with BA/NAA) was 4.4a, the “Number of elongated shoots” value (guayule explants; 250 mg·L−1, MS with BA/NAA, per total explants) was 13/30 and the “Size of Callus with multi shoots” value (guayule explants; 500 mg·L−1, DKW with BA/NAA) was 2.2bc. The “Number of elongated shoots” value (guayule explants; 500 mg·L−1, DKW with BA/NAA, per total explants) was 0/30, the “Size of Callus with multi shoots” value (guayule explants; 500 mg·L−1, MS with BA/NAA) was 4.1ab and the “Number of elongated shoots” value (guayule explants; 500 mg·L−1, MS with BA/NAA, per total explants) was 6/30. For the same compound, the “Size of Callus with multi shoots” value (guayule explants; 1000 mg·L−1, DKW with BA/NAA) was 2.0c, the “Number of elongated shoots” value (guayule explants; 1000 mg·L−1, DKW with BA/NAA, per total explants) was 0/30 and the “Size of Callus with multi shoots” value (guayule explants; 1000 mg·L−1, MS with BA/NAA) was 3.6c. For the same compound, the “Number of elongated shoots” value (guayule explants; 1000 mg·L−1, MS with BA/NAA, per total explants) was 0/30, the “Size of Callus with multi shoots” value (guayule explants; 1500 mg·L−1, DKW with BA/NAA) was 1.7 days and the “Number of elongated shoots” value (guayule explants; 1500 mg·L−1, DKW with BA/NAA, per total explants) was 0/30. For the same compound, the “Size of Callus with multi shoots” value (guayule explants; 1500 mg·L−1, MS with BA/NAA) was 2.1 days, the “Number of elongated shoots” value (guayule explants; 1500 mg·L−1, MS with BA/NAA, per total explants) was 0/30 and the “effect on elongated shoots” value (guayule explants; higher concentrations) was “negative effect”. The “Number of elongated shoots” value (guayule explants; moderate concentrations (0, 100, 250, 500 and 1000 mg·L−1), MS and DKW medium) was “significantly improved”.

With `CN[C@@H]1[C@H](O)[C@H](NC)[C@H]2O[C@@]3(O)C(=O)C[C@@H](C)O[C@H]3O[C@@H]2[C@H]1O` [spectinomycin] the “concentration fatal to guayule plants” value (guayule leaf explants) was “about 12 mg/L”, the “Callus formation and shoot emergence” value (guayule leaf explants; 8 mg·L−1, DKW regeneration medium) was “not affected” and the “Callus formation and shoot emergence” value (guayule leaf explants; 10 mg·L−1, DKW regeneration medium) was “significantly reduced”. For the same compound, the “Callus formation and shoot emergence” value (guayule leaf explants; 12 mg·L−1 or higher, DKW regeneration medium) was “completely inhibited”.
